Columns and labels:
[1] = molecular target: T1, human 5-hydroxytryptamine-2C (h5-HT2C) receptor (Homo sapiens, UniProt P28335); test: [125I]DOI competition binding at h5-HT2C receptor in transfected CHO cell membranes; settings: [125I]DOI displacement, CHO membranes expressing h5-HT2C; 95% confidence interval in adjacent column
T1 construct: expressed in transfected cells; host or cells: CHO (Chinese Hamster Ovary) cells; membrane preparation
T1 sequence (P28335 33-458): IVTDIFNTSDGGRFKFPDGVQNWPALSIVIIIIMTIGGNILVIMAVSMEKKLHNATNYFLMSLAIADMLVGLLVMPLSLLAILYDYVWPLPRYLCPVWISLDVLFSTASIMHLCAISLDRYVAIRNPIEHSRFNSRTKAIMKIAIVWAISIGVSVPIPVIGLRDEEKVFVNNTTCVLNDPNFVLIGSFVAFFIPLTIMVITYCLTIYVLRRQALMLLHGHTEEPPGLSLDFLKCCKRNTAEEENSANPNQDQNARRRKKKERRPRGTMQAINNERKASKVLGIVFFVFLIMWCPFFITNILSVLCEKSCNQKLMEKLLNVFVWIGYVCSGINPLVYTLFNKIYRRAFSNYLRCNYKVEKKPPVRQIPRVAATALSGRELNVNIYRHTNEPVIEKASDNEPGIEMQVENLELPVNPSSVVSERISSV

[2] = molecular target: T2, human serotonin 5-HT2C receptor (Homo sapiens, UniProt P28335); test: Saturation binding of [125I]DOI at the human 5-HT2C receptor; settings: saturation binding with increasing concentrations of [125I]DOI; read-out: dissociation constant, KD
T2 construct: expressed in transfected cells; host or cells: CHO (Chinese Hamster Ovary) cells; membrane preparation
T2 sequence (P28335 33-458): T1 sequence (P28335 33-458)
Excerpt: To evaluate the affinity of various compounds of formula I for activity at the 5-HT2C receptor, a CHO (Chinese Hamster Ovary) cell line transfected with the cDNA expressing the human 5-hydroxytryptamine-2C (h5-HT2C) receptor is maintained in DMEM (Dulbecco's Modified Eagle Media) supplied with fetal calf serum, glutamine, and the markers: guaninephosphoribosyl transferase (GTP) and hypoxanthinethymidine (HT). The cells are allowed to grow to confluence in large culture dishes with intermediate changes of media and splitting. Upon reaching confluence, the cells are harvested by scraping. The harvested cells are suspended in half volume of fresh physiological phosphate buffered saline (PBS) solution and centrifuged at low speed (900×g). This operation is repeated once. The collected cells are then homogenized with a polytron at setting #7 for 15 sec in ten volumes of 50 mM Tris.HCl, pH 7.4 and 0.5 mM EDTA. […] The resulting pellet is resuspended in a small volume of Tris.HCl buffer and the tissue protein content is determined in aliquots of 10-25 μL volumes. […]
The dissociation constant, KD of [^125I] […] The bound complex caught on the filter disk is dried in a vacuum oven heated to 60° C. and the radioactivity measured by liquid scintillation with 40 μL Microscint-20 scintillant in a Packard TopCount® equipped with six (6) photomultiplier detectors.

Work on `CSc1ccc2c(c1)C(N1CCN(C)CC1)Cc1ccccc1S2` (centres unmarked) [Methiothepin] yielded a Ki [1] of 4.6 nM.
Work on `COc1cc(CC(C)N)c(OC)cc1I` (centres unmarked) [[^125I] DOI] yielded a Kd [2] of 0.4 nM.

Source: patent US7402687B2, “Dihydrobenzofuran derivatives and uses thereof” (Wyeth, priority 2005, dated 2008)
